Data from ChEMBL document CHEMBL1131269, “Enhancing effects of a mono-bromo substitution at the para position of the phenyl moiety on the metabolism and anti-HIV activity of d4T-phenyl methoxyalaninyl phosphate derivatives” (Bioorg Med Chem Lett, 1998).

What was measured:
Details in all cases: Homo sapiens
CCRF-CEM [1] = test: Compound was tested for anti-HIV activity in TK-deficient CEM cells by inhibition of reverse transcriptase activity; assay type: functional, cell-based
CCRF-CEM [2] = test: Compound was tested for anti-HIV activity in TK-deficient CEM cells by microculture tetrazolium assay; assay type: functional, cell-based
CCRF-CEM [3] = test: Compound was tested for anti-HIV activity in TK-deficient CEM cells by p24 production assay; assay type: functional, cell-based
[4] = Compound was tested for anti-HIV activity in normal peripheral blood mononuclear cells by microculture tetrazolium assay; assay type: functional
[5] = Compound was tested for anti-HIV activity in normal peripheral blood mononuclear cells by inhibition of reverse transcriptase activity; assay type: functional
[6] = Compound was tested for anti-HIV activity in normal peripheral blood mononuclear cells infected with HIV-1(RTMDR-1) virus by inhibition of reverse transcriptase activity; assay type: functional
[7] = Compound was tested for anti-HIV activity in normal peripheral blood mononuclear cells infected with HIV-2 virus by inhibition of reverse transcriptase activity; assay type: functional
[8] = Compound was tested for anti-HIV activity in normal peripheral blood mononuclear cells by p24 production assay; assay type: functional

| Structure (SMILES) | IC50 (CCRF-CEM [1]) | IC50 (CCRF-CEM [2]) | IC50 (CCRF-CEM [3]) | IC50 [4] | IC50 [5] | IC50 [6] | IC50 [7] | IC50 [8] |
| --- | --- | --- | --- | --- | --- | --- | --- | --- |
| COC(=O)C(C)NP(=O)(OC[C@@H]1C=C[C@H](n2cc(C)c(=O)[nH]c2=O)O1)Oc1ccccc1 (some centres not stated) | 100 nM | > 10000 nM | 100 nM | > 10000 nM | – | – | – | – |
| COC(=O)C(C)NP(=O)(OC[C@H]1O[C@@H](n2cc(C)c(=O)[nH]c2=O)C[C@@H]1N=[N+]=[N-])Oc1ccc(Br)cc1 (some centres not stated) | 40 nM | > 10000 nM | – | > 10000 nM | 4 nM | 1500 nM | 3900 nM | – |
| COC(=O)C(C)NP(=O)(OC[C@@H]1C=C[C@H](n2cc(C)c(=O)[nH]c2=O)O1)Oc1ccc(OC)cc1 (some centres not stated) | 300 nM | > 10000 nM | 100 nM | > 10000 nM | 30 nM | – | – | 30 nM |
| Cc1cn([C@H]2C[C@H](N=[N+]=[N-])[C@@H](CO)O2)c(=O)[nH]c1=O (single isomer, unassigned) [ZIDOVUDINE] | – | – | – | – | – | 2000 nM | 2400 nM | – |
| COC(=O)C(C)NP(=O)(OC[C@@H]1C=C[C@H](n2cc(C)c(=O)[nH]c2=O)O1)Oc1ccc(Br)cc1 (some centres not stated) [STAMPIDINE] | 60 nM | > 10000 nM | 40 nM | > 10000 nM | 40 nM | 20 nM | 400 nM | 20 nM |
| Cc1cn([C@H]2C=C[C@@H](CO)O2)c(=O)[nH]c1=O [STAVUDINE] | 2400 nM | > 10000 nM | 600 nM | > 10000 nM | 40 nM | – | – | 20 nM |
